Structures can show the parent of a compound that is named as a salt.
Assays:
KDR = KDR (Homo sapiens, UniProt P35968)
[1] = target: T1, BaF3 cells expressing KIF5B-RET (Homo sapiens, UniProt P07949+P33176)
T1 sequence (P33176+P07949 with tags, fused parts or gaps): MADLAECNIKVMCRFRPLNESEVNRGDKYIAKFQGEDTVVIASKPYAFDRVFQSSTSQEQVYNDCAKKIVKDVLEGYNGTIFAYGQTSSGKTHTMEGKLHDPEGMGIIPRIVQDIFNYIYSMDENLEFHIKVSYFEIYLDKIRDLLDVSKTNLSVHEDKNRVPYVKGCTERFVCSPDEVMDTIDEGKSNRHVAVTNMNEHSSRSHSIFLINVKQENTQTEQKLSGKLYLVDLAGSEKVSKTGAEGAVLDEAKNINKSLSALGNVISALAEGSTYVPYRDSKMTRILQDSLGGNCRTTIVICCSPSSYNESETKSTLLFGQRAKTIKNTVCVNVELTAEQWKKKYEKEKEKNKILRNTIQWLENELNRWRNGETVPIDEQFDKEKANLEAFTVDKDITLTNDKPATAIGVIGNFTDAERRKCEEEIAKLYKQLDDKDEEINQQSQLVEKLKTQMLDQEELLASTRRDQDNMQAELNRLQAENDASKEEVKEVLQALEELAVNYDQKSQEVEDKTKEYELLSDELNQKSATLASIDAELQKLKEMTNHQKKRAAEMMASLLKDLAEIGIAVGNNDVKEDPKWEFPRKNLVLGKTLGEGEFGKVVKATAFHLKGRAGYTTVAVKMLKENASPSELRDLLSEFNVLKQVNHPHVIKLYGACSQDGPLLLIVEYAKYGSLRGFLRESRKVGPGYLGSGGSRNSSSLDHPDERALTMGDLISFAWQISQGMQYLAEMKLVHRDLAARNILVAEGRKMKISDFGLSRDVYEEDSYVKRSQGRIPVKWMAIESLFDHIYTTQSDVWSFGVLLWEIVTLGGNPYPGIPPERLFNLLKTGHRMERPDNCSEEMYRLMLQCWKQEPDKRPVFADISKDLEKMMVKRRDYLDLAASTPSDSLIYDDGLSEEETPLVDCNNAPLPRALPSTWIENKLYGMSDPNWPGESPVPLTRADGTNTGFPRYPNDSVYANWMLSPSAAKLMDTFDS

[2] = Human hepatocyte stability; assay type: in vitro ADME; conditions: human hepatocytes
in vitro = conditions: mouse
[3] = Mouse pharmacokinetics (intravenous and oral); assay type: in vivo, male CD-1 mice
Experimental: All studies were conducted after review by the Animal Welfare and Ethical Review Body at CRUK:MI and in accordance with the University of Manchester Policy on the use of animals in research. All work was carried out in compliance with the Animals (Scientific Procedures) Act 1986. Pharmacokinetics were studied in male CD-1 mice following single intravenous or oral administration. Blood samples were collected as dried blood spots and assayed following solvent extraction through a phospholipid removal plate followed by LC-MS/MS analysis. The resulting concentration-time data were analysed by non-compartmental methods (PK Solver, Excel Add-In).

[4] = Mouse hepatocyte stability; assay type: in vitro ADME; conditions: mouse hepatocytes
Aqueous solubility = assay type: physicochemical; conditions: aqueous medium (not further specified)
Caco-2 permeability = assay type: in vitro ADME; conditions: human; Caco-2 cells
[5] = non-modified (wild-type, non RET-driven) BaF3 cells

Chain of KDR (P35968 20-1356): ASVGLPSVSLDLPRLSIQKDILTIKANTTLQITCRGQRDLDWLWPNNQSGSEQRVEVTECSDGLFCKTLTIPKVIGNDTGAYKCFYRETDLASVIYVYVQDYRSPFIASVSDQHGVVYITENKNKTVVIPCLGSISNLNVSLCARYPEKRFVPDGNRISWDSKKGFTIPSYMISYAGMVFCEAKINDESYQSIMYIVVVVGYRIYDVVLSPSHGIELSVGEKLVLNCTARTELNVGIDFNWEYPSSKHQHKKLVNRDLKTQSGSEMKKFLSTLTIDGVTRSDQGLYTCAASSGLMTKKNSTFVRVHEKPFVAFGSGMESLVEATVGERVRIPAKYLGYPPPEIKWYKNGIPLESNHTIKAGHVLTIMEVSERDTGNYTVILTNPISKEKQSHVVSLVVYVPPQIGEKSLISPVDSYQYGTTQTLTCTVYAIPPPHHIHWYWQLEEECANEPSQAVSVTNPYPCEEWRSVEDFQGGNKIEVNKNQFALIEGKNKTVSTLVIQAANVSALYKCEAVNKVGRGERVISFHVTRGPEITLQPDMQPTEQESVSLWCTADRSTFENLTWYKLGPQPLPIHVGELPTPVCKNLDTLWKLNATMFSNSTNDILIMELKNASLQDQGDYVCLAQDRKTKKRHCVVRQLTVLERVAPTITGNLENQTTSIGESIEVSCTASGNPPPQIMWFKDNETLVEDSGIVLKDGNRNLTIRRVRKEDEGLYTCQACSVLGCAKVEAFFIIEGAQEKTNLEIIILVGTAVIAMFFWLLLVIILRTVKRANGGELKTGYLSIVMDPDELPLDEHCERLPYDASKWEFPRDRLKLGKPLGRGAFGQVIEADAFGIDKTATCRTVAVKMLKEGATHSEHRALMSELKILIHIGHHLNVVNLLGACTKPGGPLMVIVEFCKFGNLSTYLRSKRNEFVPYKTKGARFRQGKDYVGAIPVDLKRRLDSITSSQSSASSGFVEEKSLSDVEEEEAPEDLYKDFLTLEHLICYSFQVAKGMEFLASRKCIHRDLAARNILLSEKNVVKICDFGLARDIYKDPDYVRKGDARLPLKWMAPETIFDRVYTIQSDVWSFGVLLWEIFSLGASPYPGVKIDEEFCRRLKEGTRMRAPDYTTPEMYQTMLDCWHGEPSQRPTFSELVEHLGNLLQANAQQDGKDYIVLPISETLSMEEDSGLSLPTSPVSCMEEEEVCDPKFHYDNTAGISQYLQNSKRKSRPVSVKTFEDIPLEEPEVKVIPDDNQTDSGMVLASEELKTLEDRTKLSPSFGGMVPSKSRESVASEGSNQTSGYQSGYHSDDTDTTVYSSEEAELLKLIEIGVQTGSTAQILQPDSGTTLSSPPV

IC50 (KDR) [nM]	IC50 [1] [nM]	hepatocyte CLint [2] [µL/min/1e6 cells]	Compound	other results
> 10000	3600	–	COc1cc2ncnc(Nc3c(Cl)ccc(O)c3C)c2cc1OC [Compound 37, 4-Chloro-3-((6,7-dimethoxyquinazolin-4-yl)amino)-2-methylphenol]	–
2.3	41	91.9	COc1cc2ncnc(Nc3cc(O)c(C)cc3F)c2cc1OC [Compound 30]	IC50 at 48 h (in vitro; [5]): > 1000 nM
2800	–	–	COc1cc2ncnc(Nc3ccc(O)cc3)c2cc1OC [Compound 7]	–
> 10000	–	–	COc1cc2ncnc(Nc3cccc(O)c3OC)c2cc1OC [Compound 15, 3-((6,7-Dimethoxyquinazolin-4-yl)amino)-2-methoxyphenol]	–
–	–	20.9	COc1cc2ncnc(Nc3c(F)ccc(O)c3C)c2cc1OC [Compound 36, 3-((6,7-Dimethoxyquinazolin-4-yl)amino)-4-fluoro-2-methylphenol hydrochloride]	Total blood clearance ([3]; intravenous): < 10 % LBF; Oral half-life ([3]; oral): approximately 2 h; bioavailability ([3]; oral): approximately 35%; hepatocyte CLint [4]: 38.1 µL/min/1e6 cells; solubility (Aqueous solubility): > 100 µM; Papp (Caco-2 permeability): 8.2 ×10⁻⁶ cm/s
280	–	–	COc1cc2ncnc(Nc3cccc(O)c3F)c2cc1OC [Compound 14, 3-((6,7-Dimethoxyquinazolin-4-yl)amino)-2-fluorophenol]	–
> 10000	–	–	COc1cc2ncnc(Nc3cccc(O)c3C(F)(F)F)c2cc1OC [Compound 17, 3-((6,7-Dimethoxyquinazolin-4-yl)amino)-2-(trifluoromethyl)phenol]	–
–	–	157	COc1cc2ncnc(Nc3cccc(O)c3Br)c2cc1OC [Compound 11, 2-Bromo-3-((6,7-dimethoxyquinazolin-4-yl)amino)phenol hydrochloride]	IC50 at 48 h (in vitro; [5]): > 10000 nM
> 10000	–	–	COc1cc2ncnc(Nc3cccc(O)c3C#N)c2cc1OC [Compound 18, 2-((6,7-Dimethoxyquinazolin-4-yl)amino)-6-hydroxybenzonitrile]	–
20	53	–	COc1cc2ncnc(Nc3cc(O)ccc3F)c2cc1OC [Compound 25]	–
–	–	54.8	COc1cc2ncnc(Nc3cc(F)cc(O)c3C)c2cc1OC [Compound 35, 3-((6,7-Dimethoxyquinazolin-4-yl)amino)-5-fluoro-2-methylphenol hydrochloride]	IC50 at 48 h (in vitro; [5]): > 10000 nM
71	85	–	COc1cc2ncnc(Nc3cc(O)ccc3Cl)c2cc1OC [Compound 26, 4-Chloro-3-((6,7-dimethoxyquinazolin-4-yl)amino)phenol]	–
1400	–	–	COc1cc2ncnc(Nc3c(Cl)ccc(O)c3Cl)c2cc1OC [Compound 39, 2,4-Dichloro-3-((6,7-dimethoxyquinazolin-4-yl)amino)phenol]	–
150	620	–	COc1cc2ncnc(Oc3cccc(O)c3)c2cc1OC [Compound 42, 3-((6,7-Dimethoxyquinazolin-4-yl)oxy)phenol]	–
4800	–	–	COc1cccc(Nc2ncnc3cc(OC)c(OC)cc23)c1 [Compound 9]	–
–	–	95.5	COc1cc2ncnc(Nc3cccc(O)c3O)c2cc1OC [Compound 10, 3-((6,7-Dimethoxyquinazolin-4-yl)amino)benzene-1,2-diol hydrochloride]	IC50 at 48 h (in vitro; [5]): > 10000 nM
460	1700	–	COc1cc2ncnc(Nc3ccc(Br)cc3F)c2cc1OC [Compound 4]	–
7600	–	–	COc1cc2ncnc(Nc3cccc(N)c3)c2cc1OC [Compound 8]	–
9.5	53	–	COc1cc2ncnc(Nc3cc(O)c(F)cc3F)c2cc1OC [Compound 28]	–
69	120	68.9	COc1cc2ncnc(Nc3c(F)ccc(O)c3F)c2cc1OC [Compound 33, 3-((6,7-Dimethoxyquinazolin-4-yl)amino)-2,4-difluorophenol]	IC50 at 48 h (in vitro; [5]): > 10000 nM
58	940	–	COc1cc2ncnc(Nc3ccc(Cl)c(O)c3)c2cc1OC [Compound 21]	–
–	–	76.9	COc1cc2ncnc(Nc3cccc(O)c3)c2cc1OC [Compound 6]	IC50 at 48 h (in vitro; [5]): > 10000 nM
18	500	–	COc1cc2ncnc(Nc3ccc(C)c(O)c3)c2cc1OC [Compound 20]	–

Compound	IC50 (KDR) [nM]	IC50 [1] [nM]	hepatocyte CLint [2] [µL/min/1e6 cells]	other results
COc1cc2ncnc(Nc3c(Cl)ccc(O)c3F)c2cc1OC [Compound 34, 4-Chloro-3-((6,7-dimethoxyquinazolin-4-yl)amino)-2-fluorophenol]	–	–	93.3	IC50 at 48 h (in vitro): > 10000 nM
COc1cc2ncnc(Nc3cccc(O)c3Cl)c2cc1OC [Compound 12, 2-Chloro-3-((6,7-dimethoxyquinazolin-4-yl)amino)phenol hydrochloride]	–	–	174	IC50 at 48 h (in vitro): > 10000 nM
COc1cc2ncnc(Nc3c(F)ccc(O)c3Cl)c2cc1OC [Compound 40, 2-Chloro-3-((6,7-dimethoxyquinazolin-4-yl)amino)-4-fluorophenol]	1100	–	66.7	IC50 at 48 h (in vitro): > 10000 nM
COc1cc2ncnc(Nc3cccc(O)c3C)c2cc1OC [Compound 13, 3-((6,7-Dimethoxyquinazolin-4-yl)amino)-2-methylphenol hydrochloride]	–	–	28.4	IC50 at 48 h (in vitro): > 10000 nM

— paper PMC4896931, “The discovery of 2-substituted phenol quinazolines as potent RET kinase inhibitors with improved KDR selectivity” (European Journal of Medicinal Chemistry, 2016)
